≈ marks a conversion by molar mass, not a printed value.
How the values were obtained:
[1] = test system: RANKL; assay: Paw extract biomarker ELISA, CIA mice: RANKL; format: in vivo, mouse; details: paw extracts from CIA mice
Description: (§1) • 1. Male DBA/1 mice were immunized i.d. with an emulsion of 200 μg bovine type II collagen in Complete Freund's Adjuvant. • 2. On day 21, mice received i.d. boost of 100 μg collagen in Incomplete Freund's Adjuvant • 3. Compounds were administered i.p. daily for 7 days starting from disease onset (day 3-4 after boost). • 4. Foot swelling was measured by an engineering micrometer and disease severity was scored accordingly (1, erythema and mild swelling confined to the tarsal or ankle joint; 2, erythema and mild swelling extending from the ankle to the mid-foot; 3, erythema and moderate swelling extending from the ankle to the metatarsal joints; 4, erythema and severe swelling encompassing the ankle, foot, and digits). • 5. Change (Δ) of paw thickness=sum of paw thickness from 4 paws of a mouse (experimental)−sum of baseline paw thickness from 4 paws of the same mouse. • 6. % inhibition=cumulative A paw thickness (disease group−compound-treated group)/cumulative A paw thickness (disease group)
(§2) • 1. Paws were collected from mice after 5-7 days of dosing and dissected free of skin. • 2. The paws were then homogenized in ice-cold PBS (2 ml/4 paws/mouse) containing 1× protease inhibitor using a Polytron homogenizer. • 3. Debris and particles were removed from the homogenized samples by centrifugation. • 4. Liquid layers were collected for MMP-9, IL-1, IL-6, RANKL, MCP-1, and TNFα analysis using ELISA kits from R & D System.

[2] = test system: collagen-induced arthritis (CIA) in male DBA/1 mice; assay: Murine collagen-induced arthritis (CIA) model, Example 2; format: in vivo, mouse
Description: Four non-antibacterial analogues of minocycline (J, W, AF and AT) were synthesized and tested in the murine model of the disease, collagen-induced arthritis (CIA) (See supra). Male DBA/1 mice were immunized intradermally with 200 μg of bovine type II collagen and boosted with collagen three weeks later. Minocycline and four non-antibacterial minocycline derivatives were administered i.p. beginning after disease onset. Paw thickness was measured and animals were scored daily.
as §1

[3] = test system: MMP-9; assay: Paw extract biomarker ELISA, CIA mice: MMP-9; format: in vivo, mouse; details: paw extracts from CIA mice
Description: as §1, §2

[4] = test system: MCP-1; assay: Paw extract biomarker ELISA, CIA mice: MCP-1; format: in vivo, mouse; details: paw extracts from CIA mice
Description: as §1, §2

[5] = test system: IL-6; assay: Paw extract biomarker ELISA, CIA mice: IL-6; format: in vivo, mouse; details: paw extracts from CIA mice
Description: as §1, §2

[6] = test system: IL-1; assay: Paw extract biomarker ELISA, CIA mice: IL-1; format: in vivo, mouse; details: paw extracts from CIA mice
Description: as §1, §2

[7] = test system: cytokines (IL-1, IL-6, RANKL and MCP-1) and a matrix metalloproteinase (MMP-9); assay: Paw extract biomarker ELISA, CIA mice: whole panel (statements in words); format: in vivo, mouse
Description: as §1, §2

[8] = test system: collagen-induced arthritis (CIA) in male DBA/1 mice; assay: CIA model, Example 3 (cumulative scores vs untreated controls); format: in vivo; details: Mus musculus; Dose 25 mg/kg
Description: The CIA model data were acquired according to the following protocol: • 1. Male DBA/1 mice were anaesthetized by i.p. injection of ketamine/xylazine (1.25 mg/ml:0.25 mg/ml, 100 μl/mouse). • 2. Anaesthetized mice were immunized intradermally at the base of the tail with 0.1 or 0.2 ml of an emulsion composed of 100 or 200 μg bovine type II collagen in Complete Freund's Adjuvant (50 μl/spot x 2 or 4 spots). • 3. At day 21 after the immunization, mice received an intradermal boost of 100 μl of an emulsion composed of 100 μg bovine type II collagen in Incomplete Freund's Adjuvant (50 μl/spot x 2 spots) • 4. After onset of disease symptoms (usually 3-4 days after boost), tetracycline derivatives were administered daily into mice via intraperitoneal or oral routes for 8 to 15 days. Methotrexate (12 mg/kg/day) or dexmethasone (4 mg/kg/day) was used as a control for inflammation suppression. • 5. The disease severity was scored daily for 8-15 days after the appearance of the symptoms. Disease severity was graded as following: • a. Visual clinical score for the presence of inflammation in the fingers/toes of the forepaws and hindpaws: • 1. Erythema and mild swelling confined to the mid-foot (tarsals) or ankle joint • 2. Erythema and mild swelling extending from the ankle to the mid-foot • 3. Erythema and moderate swelling extending from the ankle to the metatarsal joints • 4. Erythema and severe swelling encompassing the ankle, foot, and digits. • b. Clinical swelling score for the presence of paw edema in the forepaws and hindpaws: • Paw thickness was measured daily by an engineering micrometer after isofluorane inhalation or ketamine/xylazine (1.25 mg/ml:0.25 mg/ml, 100 μl/mouse) i.p. injection.
Daily scores and paw swelling measurements for each treatment group of mice were added over the total observation period to obtain a cumulative score. Cumulative scores were compared between untreated controls and treated groups to determine tetracycline-induced inhibition.

[9] = test system: S. aureus RN450; assay: Antibacterial activity MIC, Gram+ (Table 9); format: cell-based; details: Staphylococcus aureus, CAMHB, 35° C., approximately 18 hr
Description: (§3) 2 mg of each compound is dissolved in 100 μl of DMSO. The solution is then added to cation-adjusted Mueller Hinton broth (CAMHB), which results in a final compound concentration of 200 μg per ml. The tetracycline compound solutions are diluted to 50 μL volumes, with a test compound concentration of 0.098 μg/ml. Optical density (OD) determinations are made from fresh log-phase broth cultures of the test strains. Dilutions are made to achieve a final cell density of 1×10^6 CFU/ml. At OD=1, cell densities for different genera should be approximately:
(§4) 50 μl of the cell suspensions are added to each well of microtiter plates. The final cell density should be approximately 5×10^5 CFU/ml. These plates are incubated at 35° C. in an ambient air incubator for approximately 18 hr. The plates are read with a microplate reader and are visually inspected when necessary. The MIC is defined as the lowest concentration of the tetracycline compound that inhibits growth.

[10] = Pharmacokinetics in rats after i.v. and oral dosing; format: in vivo; details: plasma, rat
Description: Pre-cannulated (jugular vein and carotid artery for i.v. group and carotid artery for oral group) male CD/IGS rats (approximately 250 g) were used. Rats were fasted overnight prior to dosing with access to food restored 2 hours after dosing. Rats were administered with approximately 0.25 mL compound (1 mg/kg dose) for i.v. route (via jugular vein over 20 seconds) or 0.5 mL solution (5 mg/kg dose) orally. Blood (300 μL) was collected in tubes with EDTA anticoagulant at various time points, centrifuged and plasma collected and stored frozen at −20° C. Animals were euthanized by CO2 following the final blood collection. Plasma was extracted (0.1% trifluoroacetic acid in 67% acetonitrile/33% water) and levels of compound quantified by HPLC/MS against a standard curve.

[11] = test system: E. coli 25922; assay: Antibacterial activity MIC, Gram- (Table 9); format: cell-based; details: Escherichia coli, CAMHB, 35° C., approximately 18 hr
Description: as §3, §4

[12] = test system: E. coli ATCC25922 (tetracycline sensitive); assay: E. coli MIC, broth micro-dilution per CLSI guidelines (Table 3); format: cell-based; details: Escherichia coli; E. coli ATCC25922, cation-adjusted Mueller Hinton broth
[13] = 25 mg/kg/day i.p., dosed after disease onset

C[C@@H]1C[C@H]2[C@@H]3CCC4=CC(=O)C=C[C@]4(C)[C@@]3(F)[C@@H](O)C[C@]2(C)[C@@]1(O)C(=O)CO [Dexamethasone, dexamethasone, reference compound]
Percent level of Biomarker Tissue [c] Compared to Untreated Control, RANKL AVG [1]: 10% | % Inhibition (Change in Paw Thickness) AVG ([2]; 4 mg/kg): 82% | % Inhibition (Clinical Score) AVG ([2]; 4 mg/kg): 48% | Change in Paw Thickness (mm) Mean ([2]; day 1 of dosing, 4 mg/kg/day i.p.): 0.92 mm | Change in Paw Thickness (mm) Mean ([2]; day 2 of dosing, 4 mg/kg/day i.p.): 0.57 mm | Change in Paw Thickness (mm) Mean ([2]; day 3 of dosing, 4 mg/kg/day i.p.): 0.47 mm | Change in Paw Thickness (mm) Mean ([2]; day 4 of dosing, 4 mg/kg/day i.p.): −0.07 mm | Change in Paw Thickness (mm) Mean ([2]; day 5 of dosing, 4 mg/kg/day i.p.): 0.03 mm | Change in Paw Thickness (mm) Mean ([2]; day 6 of dosing, 4 mg/kg/day i.p.): −0.13 mm | Change in Paw Thickness (mm) Mean ([2]; day 7 of dosing, 4 mg/kg/day i.p.): 0.04 mm | Change in Paw Thickness (mm) Mean ([2]; day 8 of dosing, 4 mg/kg/day i.p.): −0.21 mm | Percent level of Biomarker Tissue [c] Compared to Untreated Control, MMP-9 AVG [3]: 35% | Percent level of Biomarker Tissue [c] Compared to Untreated Control, MCP-1 AVG [4]: 5% | Percent level of Biomarker Tissue [c] Compared to Untreated Control, IL-6 AVG [5]: 4% | Percent level of Biomarker Tissue [c] Compared to Untreated Control, IL-1 AVG [6]: 16%

CN(Cc1cnc2nc(N)nc(N)c2n1)c1ccc(C(=O)N[C@@H](CCC(=O)O)C(=O)O)cc1 [Methotrexate, methotrexate, reference compound]
% Inhibition (Change in Paw Thickness) AVG ([2]; 12 mg/kg): 45% | % Inhibition (Clinical Score) AVG ([2]; 12 mg/kg): 25% | Change in Paw Thickness (mm) Mean ([2]; day 1 of dosing, 12 mg/kg/day i.p.): 0.77 mm | Change in Paw Thickness (mm) Mean ([2]; day 2 of dosing, 12 mg/kg/day i.p.): 0.68 mm | Change in Paw Thickness (mm) Mean ([2]; day 3 of dosing, 12 mg/kg/day i.p.): 0.71 mm | Change in Paw Thickness (mm) Mean ([2]; day 4 of dosing, 12 mg/kg/day i.p.): 0.68 mm | Change in Paw Thickness (mm) Mean ([2]; day 5 of dosing, 12 mg/kg/day i.p.): 0.67 mm | Change in Paw Thickness (mm) Mean ([2]; day 6 of dosing, 12 mg/kg/day i.p.): 0.56 mm | Change in Paw Thickness (mm) Mean ([2]; day 7 of dosing, 12 mg/kg/day i.p.): 0.45 mm | Change in Paw Thickness (mm) Mean ([2]; day 8 of dosing, 12 mg/kg/day i.p.): 0.28 mm | Percent level of Biomarker Tissue [c] Compared to Untreated Control, MMP-9 AVG [3]: 52% | Percent level of Biomarker Tissue [c] Compared to Untreated Control, MCP-1 AVG [4]: 37% | Percent level of Biomarker Tissue [c] Compared to Untreated Control, IL-6 AVG [5]: 20% | Footpad tissue levels of cytokines (IL-1, IL-6, RANKL and MCP-1) and MMP-9 after therapeutic treatment [7]: decreased | Percent level of Biomarker Tissue [c] Compared to Untreated Control, IL-1 AVG [6]: 16%

CN(C)c1ccc(O)c2c1C[C@H]1C[C@H]3[C@H](N(C)C)C(O)=C(C(N)=O)C(=O)[C@@]3(O)C(O)=C1C2=O [Minocycline, minocycline, reference compound]
inhibition in vivo at 25 mg/kg [8]: 22% | MIC [9]: 0.06 µg/mL (≈ 0.131 µM) | Percent level of Biomarker Tissue [c] Compared to Untreated Control, RANKL AVG [1]: 99% | % Inhibition (Change in Paw Thickness) AVG [2, 13]: 22% | % Inhibition (Clinical Score) AVG [2, 13]: 18% | inhibition of the disease (CIA) ([2]; 50 mg/kg/day i.p.): 45% | EC50 in inflammation suppression in CIA mice ([2]; CIA mice, i.p. daily): >50 mg/kg/day i.p. | Change in Paw Thickness (mm) Mean ([2]; day 1 of dosing, 25 mg/kg/day i.p.): 0.74 mm | Change in Paw Thickness (mm) Mean ([2]; day 2 of dosing, 25 mg/kg/day i.p.): 0.72 mm | Change in Paw Thickness (mm) Mean ([2]; day 3 of dosing, 25 mg/kg/day i.p.): 0.78 mm | Change in Paw Thickness (mm) Mean ([2]; day 4 of dosing, 25 mg/kg/day i.p.): 0.86 mm | Change in Paw Thickness (mm) Mean ([2]; day 5 of dosing, 25 mg/kg/day i.p.): 0.93 mm | Change in Paw Thickness (mm) Mean ([2]; day 6 of dosing, 25 mg/kg/day i.p.): 1.07 mm | Change in Paw Thickness (mm) Mean ([2]; day 7 of dosing, 25 mg/kg/day i.p.): 0.92 mm | Change in Paw Thickness (mm) Mean ([2]; day 8 of dosing, 25 mg/kg/day i.p.): 1.18 mm | bioavailability ([10]; male, CD/IGS, after oral dosing of 5 mg/kg, read-out: PK Parameters (Rat) % F, fraction of absorption): 31% | half-life ([10]; male CD/IGS rats, 1 mg/kg i.v. or 5 mg/kg oral, read-out: PK Parameters (Rat) T1/2 (converted)): 216 min | Percent level of Biomarker Tissue [c] Compared to Untreated Control, MMP-9 AVG [3]: 104% | MIC [11]: 1 µg/mL (≈ 2.19 µM) | MIC [12]: 1 µg/mL (≈ 2.19 µM) | Percent level of Biomarker Tissue [c] Compared to Untreated Control, MCP-1 AVG [4]: 102% | Percent level of Biomarker Tissue [c] Compared to Untreated Control, IL-6 AVG [5]: 114% | Percent level of Biomarker Tissue [c] Compared to Untreated Control, IL-1 AVG [6]: 119%

Reference: patent US20100190755A1, “TETRACYCLINE COMPOUNDS FOR THE TREATMENT OF RHEUMATOID ARTHRITIS AND RELATED METHODS OF TREATMENT” (priority 2008, published 2010)
